The values below are quoted from earlier work in patent publication US20100241197A1, “METHODS OF USING NITROXIDES IN CONJUNCTION WITH PHOTOSENSITIZERS AND SONOSENSITIZERS” (Mitos Pharmaceuticals, Inc., priority 2003, published 2010).

Read-outs that look alike come from different tables or passages of the source.

Experiment in data set [1]: not given
This is another data set of the same source.

The conditions of data set [2]: relative to PHOTOFRIN
Another data set concerns tumor. Particulars: in vivo.

`CCOC(=O)C1=Cc2c3nc(cc4nc(cc5[n-]c(cc6[n-]c2c(C)c6CC)c(C)c5CC)C(C)=C4CC)[C@@H](C)[C@]13CC.[Cl-].[Cl-].[Sn]` (racemic) [SnET2, tin etiopurpurin]: the extinction coefficient (at 700 nm) is 40 000 M-1 cm-1.
For the compound `C=Cc1c(C)c2cc3nc(c(CC(=O)N[C@@H](CC(=O)[O-])C(=O)[O-])c4[nH]c(cc5nc(cc1[nH]2)C(C)=C5CC)c(C)c4C(=O)[O-])[C@@H](CCC(=O)[O-])[C@@H]3C.[Na+].[Na+].[Na+].[Na+]` [Npe6, Mono-L-aspartyl chlorin e6], under “absorbance peak at 654 nm”, the extinction coefficient was 40 000 M-1 cm-1. Moreover, the “solubility in water / aqueous solutions” value in data set [1] was “highly water soluble”.
Consider `Oc1cccc(-c2c3nc(c(-c4cccc(O)c4)c4ccc([nH]4)c(-c4cccc(O)c4)c4nc(c(-c5cccc(O)c5)c5ccc2[nH]5)CC4)C=C3)c1` [m-THPC, Meta-tetra hydroxyphenyl chlorin], for which, in data set [2], the “skin photosensitivity compared with PHOTOFRIN” value is recorded as “only slightly less”.
As for “benzoporphyrin derivative mono-acid A [BPD]”, the extinction coefficient (absorbance peak at 650 nm) was 34 000 M-1 cm-1. Besides, in the data set on tumor, the tumor accumulation result is recorded as “rapid tumor accumulation”.
